Measured values taken from patent US20080207522A1, “Antimicrobial Peptides” (priority 2004, published 2008).
Values joined by “and” are separate entries in the source; they are usually repeats but may differ in a detail not shown here. Equal entries are not always repeated. Where two headings read alike, the source gives them in different places. Ends that are not written are not given here.

Assays:
[1] = system: Staphylococcus aureus cells; experiment: Membrane depolarization with membrane potential-sensitive dye diSC35; assay type: cell-based; conditions: 20 μg/ml of peptides, diSC35 release, FIG. 4
Method: FIG. 4 is a graphical representation showing the mechanism of action of peptides assessed by measuring the ability to depolarize Staphylococcus aureus cells using the membrane potential-sensitive dye diSC35. Either 20 μg/ml of peptides or, as a control, 29 μg/ml of gramicidin S (Gram S) were added. Lines are smoothed using a polynomial (to the 6th power) function.

[2] = system: Pseudomonas aeruginosa strain H1001 fliC::luxCDABE; experiment: Luminescence-based assay for the non-cleaved (bound) peptides on cellulose membranes; assay type: cell-based
Outline: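 Peptides remained bound to cellulose spots, which were ethanol-washed and equilibrated in 100 mM Tris pH 7.3. Constitutively lux-expressing P. aeruginosa (OD600 0.35 culture diluted 1:25) added in 10 mM Tris-HCl pH 7.3, 20 mM glucose at 37° C. Luminescence (RLU) followed over 14 time points; peptides binned into six activity classes.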

[3] = system: Salmonella enterica ssp. Typhimurium; conditions: ssp. Typhimurium
Method: (§1) Minimal inhibitory concentration (MIC) determination. The MICs of the peptides were measured using a modified broth microdilution method in Mueller Hinton (MH) medium. Wu et al., J. Biol. Chem. 274: 29-35, 1999. Briefly, the peptides were dissolved and stored in glass vials. The assay was performed in sterile 96-well polypropylene microtitre plates were used. Serial dilutions of the peptides to be assayed were performed in 0.01% acetic acid (Fisher) containing 0.2% bovine serum albumin (Boehringer Mannheim GmbH) at 10× the desired final concentration. Ten microlitres of the 10× peptides were added to each well of a 96-well polypropylene plate containing 90 μl of MH media per well. Bacteria were added to the plate from an overnight culture at 2-7×10^5 colony forming units/ml and incubated over night at 37° C. The MIC was taken as the concentration at which no growth was observed.
(§2) Strains. For the killing assay a mini-Tn5-lux mutant in Pseudomonas aeruginosa H103 was used. The strain is called H1001 and contains a fliC::luxCDABE transcriptional fusion resulting in constitutive expression of luciferase. The bacterial strains used for the antimicrobial activity assays included Escherichia coli UB1005 (F-, nalA37, metB1), a wild-type Salmonella enterica ssp. Typhimurium (S. Typhimurium), wild-type Pseudomonas aeruginosa PAO1 strain H103, Enterococcus faecalis ATCC29212, Staphylococcus aureus ATCC25923, and a clinical isolate of Staphylococcus epidermidis obtained from Dr. D. Speert (Department of Medicine, University of British Columbia). Antifungal activity was tested using a lab isolate of Candida albicans obtained from Dr. B. Dill (Department of Microbiology and Immunology, University of British Columbia).
(§3) In addition, the parent peptide Bac2A was included in these studies as a standard. The minimal inhibitory concentrations (MIC) were determined for the important medical pathogens Pseudomonas aeruginosa, Escherichia coli, Salmonella typhimurium, Staphylococcus aureus, Staphylococcus epidermidis, Enterococcus faecaelis, and the yeast Candida albicans in Mueller-Hinton media.

Escherichia coli UB1005 = system: Escherichia coli UB1005
Method: as §1, §2, §3

[4] = system: Staphylococcus epidermidis
Method: as §1, §2, §3

[5] = system: Pseudomonas aeruginosa PAO1 strain H103
Method: as §1, §2, §3

[6] = system: Pseudomonas aeruginosa strain H1001; experiment: Assay for the cleaved (free, soluble) peptides from cellulose support, luminescence killing assay; assay type: cell-based; set-up: key: 1: Peptides showing stronger killing than Bac2A at a 4 to 8-fold higher dilution; Peptides showing stronger killing compared to that of Bac2A at a 4-fold higher dilution; 3: Peptides similar to Bac2A; 4: Peptides similar to Bac2A at the highest concentration but demonstrating weaker killing at a 2-fold dilution; 5: Peptides giving very weak or no killing at a 2-fold dilution; 6: Peptides with weak killing activity at the highest concentration
Outline: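 Cellulose-synthesized peptides (amidated C-terminus, two β-alanines) cleaved by ammonia, released from punched spots 30 min at 37 °C, then serially diluted. P. aeruginosa H1001 (constitutive fliC::luxCDABE) overnight culture diluted 1:500 in LB or 100 mM Tris pH 7.3/20 mM glucose. Killing followed as time-dependent luminescence loss at 37 °C.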

[7] = system: THP-1 macrophage-like cells; conditions: at 100 μg/ml
Method: THP1 cells were cultured in RPMI 1640 medium (supplemented with 10% (v/v) FCS, 1% L-glutamine, and 1 nM sodium pyruvate) in E-toxa-clean (Sigma-Aldrich, Oakville, Ontario, Canada)-washed, endotoxin-free bottle. THP1 cells were counted and 250 μl per well of 2-4×10^4 cells/ml were transferred into a 96 well tissue cultured treated polystyrene microtiterplate (Beckton Dickinson, Franklin Lakes, USA). In addition PMA was added (1.3 nM) and the cells were incubated for three days. After three days the medium were exchanged and Pseudomonas aeruginosa LPS and the peptides were added. The incubation time was four hours and the supernatant was frozen at −20° C. The cells were stained with Tryphan Blue for 2 minutes and washed with PBS two times. The viability of the cells was determined by counting the stained cells over the unstained.
Cytotoxicity was assessed using PMA-treated, human macrophage THP-1 cell line (FIG. 5).

[8] = system: Staphylococcus aureus ATCC25923; conditions: ATCC25923
Method: as §1, §2, §3

[9] = system: Enterococcus faecalis ATCC29212; conditions: ATCC29212
Method: as §1, §2, §3

Candida albicans = system: Candida albicans
Method: as §1, §2, §3

RLARIVVIRVAR-NH2 [Bac2A, reference compound]
ability to depolarize the membrane of S. aureus [1]: able to depolarize the membrane of S. aureus very quickly
Luminescence at the given time in minutes: 0 ([2]; cellulose-bound peptide, 0 min, listed as Bac001): 4374 RLU and 4041 RLU and 4234 RLU and 4425 RLU and 4530 RLU
Luminescence at the given time in minutes: 20 ([2]; cellulose-bound peptide, 20 min, listed as Bac001): 6729 RLU and 6352 RLU and 6373 RLU and 6323 RLU and 6411 RLU
Luminescence at the given time in minutes: 40 ([2]; cellulose-bound peptide, 40 min, listed as Bac001): 2607 RLU and 2249 RLU and 1840 RLU and 2721 RLU
Luminescence at the given time in minutes: 100 ([2]; cellulose-bound peptide, 100 min, listed as Bac001): 48 RLU and 35 RLU and 50 RLU and 53 RLU and 57 RLU
Activity Class bound ([2]; uncleaved cellulose-bound peptides): 3 (Peptides similar to Bac2A resulting in lux values of less than 500 after 240 min.)
inhibition of light production (killing) over 10 consecutive cycles ([2]; uncleaved peptide spots re-used 10 times, 40 h exposure to bacteria per cycle): very similar inhibition of light production (killing) was observed
MIC S. Typhim. [3]: 34 µg/mL
MIC S. typhimurium [3]: 34 µg/mL
MIC E. coli (Escherichia coli UB1005; Table 4a, Mueller-Hinton media, average of three measurements): 17 µg/mL
MIC E. coli (Escherichia coli UB1005; Table 6): 17 µg/mL
MIC S. epi. [4]: 4 µg/mL
MIC S. epidermidis [4]: 4 µg/mL
difference in MIC between high and low Mg2+ conditions ([5]; P. aeruginosa, Table 5): 4 fold
MIC P. aerug ([5]; PAO1): 50 µg/mL
MIC P. aeruginosa ([5]; PAO1): 50 µg/mL
MIC P. aeruginosa Muller Hinton Media ([5]; PAO1): 54 µg/mL
MIC P. aeruginosa With 10 μM Mg ([5]; PAO1): 18 µg/mL
MIC P. aeruginosa With 2 mM Mg ([5]; PAO1): 73 µg/mL
Soluble Class ([6]; Table 5, free peptides): 3
Activity Class Soluble ([6]; free (cleaved) peptides, killing relative to Bac2A): 3

RRAAVVLIVIRR-NH2 (C-terminus assumed) [Bac020]
cytotoxic effect against a human macrophage cell line [7]: no cytotoxic effect
MIC S. aureus [8]: 5 µg/mL
MIC E. faecalis [9]: 8 µg/mL
MIC S. typhimurium [3]: 18 µg/mL
MIC S. epidermidis [4]: 1.5 µg/mL
MIC P. aeruginosa ([5]; PAO1): 7 µg/mL
MIC P. aeruginosa Muller Hinton Media ([5]; PAO1): 7 µg/mL
MIC P. aeruginosa With 10 μM Mg ([5]; PAO1): 2 µg/mL
MIC P. aeruginosa With 2 mM Mg ([5]; PAO1): 8 µg/mL
MIC against P. aeruginosa ([5]; PAO1): 7 µg/mL
MIC C. albicans (Candida albicans): 11 µg/mL
